The numbers were not newly measured in patent US20230104358A1 (priority 2021, published 2023), which cites them from elsewhere.

The test system of series [1] is haloperidol-sensitive sigma site.
Series [2] concerns α1 adrenergic receptor.
The test system of series [3] is α2 adrenergic receptor.
Series [4] concerns the target serotonin 5HT1D receptor (Homo sapiens, UniProt P28221).
For series [5], the target named is T1, serotonin 5HT1A receptor (Homo sapiens, UniProt P08908).
T1 sequence (P08908 1-422): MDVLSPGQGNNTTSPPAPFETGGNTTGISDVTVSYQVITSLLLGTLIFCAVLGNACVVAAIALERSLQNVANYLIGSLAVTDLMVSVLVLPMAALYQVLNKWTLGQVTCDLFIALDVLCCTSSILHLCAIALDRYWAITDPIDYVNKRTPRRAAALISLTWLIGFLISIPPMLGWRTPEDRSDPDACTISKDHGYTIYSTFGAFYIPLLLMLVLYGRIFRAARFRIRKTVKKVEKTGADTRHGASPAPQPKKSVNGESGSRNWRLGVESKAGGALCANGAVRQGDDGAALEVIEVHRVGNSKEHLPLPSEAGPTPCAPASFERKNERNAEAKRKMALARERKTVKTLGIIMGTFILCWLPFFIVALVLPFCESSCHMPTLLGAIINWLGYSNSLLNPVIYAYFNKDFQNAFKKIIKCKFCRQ

Series [6] has as its target dopamine D1 (Homo sapiens, UniProt P21728).
Series [7] addresses dopamine Type 2 (D2) receptor (Homo sapiens, UniProt P14416).
Series [8] deals with β2 adrenergic receptor (Homo sapiens, UniProt P07550).
Series [9] has as its target T2, serotonin 5HT1C receptor (Homo sapiens, UniProt P28335).
T2 sequence (P28335 33-458): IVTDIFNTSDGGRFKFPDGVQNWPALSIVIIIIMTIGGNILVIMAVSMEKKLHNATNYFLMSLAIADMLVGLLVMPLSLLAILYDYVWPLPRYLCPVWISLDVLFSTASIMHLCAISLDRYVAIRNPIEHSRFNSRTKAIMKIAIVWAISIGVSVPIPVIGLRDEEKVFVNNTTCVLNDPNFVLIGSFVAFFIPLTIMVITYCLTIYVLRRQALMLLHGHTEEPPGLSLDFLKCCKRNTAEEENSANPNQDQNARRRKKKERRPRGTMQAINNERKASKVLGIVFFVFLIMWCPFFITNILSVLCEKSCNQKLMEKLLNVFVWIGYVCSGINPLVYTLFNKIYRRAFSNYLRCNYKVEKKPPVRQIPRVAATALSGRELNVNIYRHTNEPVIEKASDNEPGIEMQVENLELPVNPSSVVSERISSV

The target in series [10] is β1 adrenergic receptor (Homo sapiens, UniProt P08588).

SMILES strings stand for the structures.

Sequence of serotonin 5HT1D receptor (P28221 whole entry): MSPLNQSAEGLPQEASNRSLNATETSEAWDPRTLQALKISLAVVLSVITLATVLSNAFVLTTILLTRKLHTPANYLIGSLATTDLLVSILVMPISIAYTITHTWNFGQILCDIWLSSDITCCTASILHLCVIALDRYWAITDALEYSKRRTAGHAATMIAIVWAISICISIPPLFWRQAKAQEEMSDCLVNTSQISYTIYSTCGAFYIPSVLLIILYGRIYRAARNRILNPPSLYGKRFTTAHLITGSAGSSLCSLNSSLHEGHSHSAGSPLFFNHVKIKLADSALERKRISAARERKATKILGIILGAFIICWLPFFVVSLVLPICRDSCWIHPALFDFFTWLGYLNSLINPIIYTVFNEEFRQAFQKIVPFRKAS
Sequence of dopamine Type 2 (D2) receptor (P14416 whole entry): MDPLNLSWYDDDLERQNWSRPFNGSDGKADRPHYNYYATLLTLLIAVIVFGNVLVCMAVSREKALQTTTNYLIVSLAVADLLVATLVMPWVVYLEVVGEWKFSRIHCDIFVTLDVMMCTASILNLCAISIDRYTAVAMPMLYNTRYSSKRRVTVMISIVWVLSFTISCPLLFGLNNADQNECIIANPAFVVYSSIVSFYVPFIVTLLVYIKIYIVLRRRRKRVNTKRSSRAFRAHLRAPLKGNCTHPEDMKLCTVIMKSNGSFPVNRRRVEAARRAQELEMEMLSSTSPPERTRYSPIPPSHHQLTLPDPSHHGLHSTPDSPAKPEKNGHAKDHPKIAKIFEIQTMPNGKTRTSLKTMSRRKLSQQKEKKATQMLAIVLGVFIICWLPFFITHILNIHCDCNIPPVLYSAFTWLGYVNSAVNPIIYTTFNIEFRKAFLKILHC
Sequence of β2 adrenergic receptor (P07550 whole entry): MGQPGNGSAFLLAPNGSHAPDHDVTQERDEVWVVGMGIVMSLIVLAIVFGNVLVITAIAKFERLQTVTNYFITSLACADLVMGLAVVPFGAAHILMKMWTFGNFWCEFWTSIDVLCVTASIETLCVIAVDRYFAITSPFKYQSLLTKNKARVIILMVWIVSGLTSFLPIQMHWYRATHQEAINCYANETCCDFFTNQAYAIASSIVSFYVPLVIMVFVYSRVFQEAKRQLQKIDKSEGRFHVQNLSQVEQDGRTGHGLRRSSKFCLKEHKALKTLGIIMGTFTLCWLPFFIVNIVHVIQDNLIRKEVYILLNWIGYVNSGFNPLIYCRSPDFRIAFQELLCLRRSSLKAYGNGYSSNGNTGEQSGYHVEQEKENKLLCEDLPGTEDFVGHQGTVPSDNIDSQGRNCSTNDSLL
Sequence of β1 adrenergic receptor (P08588 whole entry): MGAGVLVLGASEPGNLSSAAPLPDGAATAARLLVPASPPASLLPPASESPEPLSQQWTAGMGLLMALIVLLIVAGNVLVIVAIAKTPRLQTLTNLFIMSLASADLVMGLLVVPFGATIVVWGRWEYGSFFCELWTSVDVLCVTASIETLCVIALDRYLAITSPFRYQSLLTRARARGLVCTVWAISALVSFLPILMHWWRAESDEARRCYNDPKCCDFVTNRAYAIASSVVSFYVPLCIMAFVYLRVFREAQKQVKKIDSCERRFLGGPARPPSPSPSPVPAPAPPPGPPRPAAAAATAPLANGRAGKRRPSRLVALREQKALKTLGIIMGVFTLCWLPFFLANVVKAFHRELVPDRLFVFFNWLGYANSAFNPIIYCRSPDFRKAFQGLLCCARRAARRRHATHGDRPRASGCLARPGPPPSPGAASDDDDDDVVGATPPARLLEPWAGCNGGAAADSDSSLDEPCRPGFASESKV
Sequence of dopamine D1 (P21728 whole entry): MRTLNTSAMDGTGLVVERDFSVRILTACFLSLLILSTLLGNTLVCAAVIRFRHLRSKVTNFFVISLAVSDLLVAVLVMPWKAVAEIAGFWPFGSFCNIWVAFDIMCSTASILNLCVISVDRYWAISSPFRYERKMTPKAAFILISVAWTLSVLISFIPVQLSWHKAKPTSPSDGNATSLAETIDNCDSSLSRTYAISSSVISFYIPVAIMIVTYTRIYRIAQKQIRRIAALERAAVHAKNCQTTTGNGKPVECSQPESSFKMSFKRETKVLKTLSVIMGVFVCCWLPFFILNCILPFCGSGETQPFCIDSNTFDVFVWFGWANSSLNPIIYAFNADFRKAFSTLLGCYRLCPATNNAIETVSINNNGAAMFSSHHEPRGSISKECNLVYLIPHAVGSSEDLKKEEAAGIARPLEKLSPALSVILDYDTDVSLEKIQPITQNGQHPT

On to `Cc1nc2n(c(=O)c1CCN1CCC(c3noc4cc(F)ccc34)CC1)CCCC2` [Risperidone], for which the “affinity for haloperidol-sensitive sigma site” value in series [1] is “weak affinity”. Besides, the “affinity for α1 adrenergic receptor” value in series [2] is on record as “high affinity”. The “affinity for α2 adrenergic receptor” value in [3] is “high affinity”. In addition, in series [4], the “affinity for serotonin 5HT1D receptor” value is “low to moderate affinity”. The “affinity for serotonin 5HT1A receptor” value in series [5] is reported as “low to moderate affinity”. Moreover, the “affinity for dopamine D1” value in [6] is “weak affinity”. Further, in series [7], the “affinity for dopamine Type 2 (D2) receptor” value was “high affinity”. Also, the “affinity for β2 adrenergic receptor” value in series [8] was “no affinity”. Besides, the “affinity for serotonin 5HT1C receptor” value in series [9] was “low to moderate affinity”. Besides, in series [10], the “affinity for β1 adrenergic receptor” value is “no affinity”.
